Test results: US12097177B2, “Therapeutic method for cat with chronic kidney disease” (Toray Industries, Inc., priority 2021, dated 2024)
Read-outs that look alike come from different tables or passages of the source.

Assays:
[1] = system: cats with naturally occurring CKD; settings: cited from earlier work
cats with CKD [2] = test: Retrospective observation study: survival period / overall survival rate (all-cause death), BPS therapy vs No BPS therapy; assay type: in vivo, cat; settings: for average survival period / median survival period: Kaplan-Meier
Experimental: Based on the drug prescription records, cats were divided into two groups: a BPS therapy group consisting of 17 cats; and a BPS therapy-free group consisting of 67 cats, and baseline characteristics and the survival periods were compared and analyzed retrospectively. To the cats in the BPS therapy group, BPS drugs for veterinary use, RAPROS (trademark) (Toray Industries, Inc.), were administered while adjusting the amount of BPS to 20.0 to 49.1 μg/kg body weight/day and the median to 31.4 μg/kg body weight/day twice daily during or after morning and evening feeding occasions. By designating all-cause death as the outcome, the start date of treatment as the point of origin for the cats in the BPS therapy group, and the start date of observation as the point of origin for the cats in the No BPS therapy group based on the death records, the periods (months) before the outcome was observed were recorded. In analysis, the 2-year overall survival rates (%) of the BPS therapy group and of the No BPS therapy group, the standard errors thereof, the 95% confidence intervals, and the comparison of the 2-year overall survival rates (%) between the groups were calculated. […] Differences in the overall survival rates were assessed by the log rank test, the Cochran-Mantel-Haenszel test, by setting significant level at a two-tailed P-value of <0.05. […]
From among the cats with CKD, the data sets of […] having body weight of less than 3.5 kg were extracted, and the cats were divided into two groups: a BPS therapy group consisting of 19 cats; and a BPS therapy-free group consisting of 40 cats. In the same manner as described above, the 3-year overall survival rates (%) and the average survival periods were compared between the groups.

cats with CKD [3] = test: Retrospective observation study: period before kidney death (serum creatinine higher than 10.0 mg/dL), BPS therapy vs No BPS therapy; assay type: in vivo, cat; settings: for 3-year kidney survival rate: cats with CKD; for average period before kidney death: Kaplan-Meier
Experimental: Based on the drug prescription records, cats were divided into two groups: a BPS therapy group consisting of 73 cats; and a BPS therapy-free group consisting of 126 cats.
In Example 3, the periods before kidney death were compared and analyzed retrospectively. The timing of kidney death was determined with reference to the guidelines on acute kidney insufficiency from the International Renal Interest Society. On the basis of the statement such that “a patient may die within 5 to 10 days despite appropriate conservative therapy without kidney replacement therapy if serum creatinine is higher than 10.0 mg/dL,” specifically, kidney death was determined when serum creatinine of higher than 10.0 mg/dL was recorded in the serum creatinine test. By designating kidney death as the outcome, the start date of treatment as the point of origin for the cats in the BPS therapy group, and the start date of observation as the point of origin for the cats in the No BPS therapy group, the periods (months) before the outcome was observed were recorded. In analysis, the 3-year kidney survival rates (%) of the BPS therapy group and of the No BPS therapy group, the standard errors thereof, the 95% confidence intervals, and the comparison of the 3-year kidney survival rates (%) between the groups were calculated. […] Differences in the kidney survival rates were assessed by the log rank test, the Cochran-Mantel-Haenszel test, by setting significant level at a two-tailed P-value of <0.05.
Based on the drug prescription records, cats were divided into two groups: a BPS therapy group consisting of 37 cats; and a BPS therapy-free group consisting of 332 cats.
In Comparative Example 2, the periods before kidney death were compared and analyzed retrospectively. The timing of kidney death was determined with reference to the guidelines on acute kidney insufficiency from the International Renal Interest Society. On the basis of the statement such that “a patient may die within 5 to 10 days despite appropriate conservative therapy without kidney replacement therapy if serum creatinine is higher than 10.0 mg/dL,” specifically, kidney death was determined when serum creatinine of higher than 10.0 mg/dL was recorded in the serum creatinine test. By designating kidney death as the outcome, the start date of treatment as the point of origin for the cats in the BPS therapy group, and the start date of observation as the point of origin for the cats in the No BPS therapy group, the periods (months) before the outcome was observed were recorded. In analysis, the 3-year kidney survival rates (%) of the BPS therapy group and of the No BPS therapy group, the standard errors thereof, the 95% confidence intervals, and the comparison of the 3-year kidney survival rates (%) between the groups were calculated. […] Differences in the kidney survival rates were assessed by the log rank test, the Cochran-Mantel-Haenszel test, by setting significant level at a two-tailed P-value of <0.05.

cats with CKD [4] = settings: 20 to 55 μg twice daily, 2 months to 3 years and 3 months; cited from earlier work
[5] = system: cats with chronic renal failure; settings: cited from earlier work; for kidney function: 4 cats
[6] = system: kidney of rat progressive glomerulonephritis; settings: in vivo; cited from earlier work
[7] = system: patient with chronic renal failure; settings: BPS immediate release tablets; serum creatinine of 2.2 mg/dl or higher; cited from earlier work
cats with CKD [8] = settings: 55 μg twice daily for at least 5 months, cited from earlier work
[9] = 55 μg or 6 to 26.4 μg/kg, preferably twice daily for 30 days or longer (WO '949)
[10] = cats with CKD having body weight of less than 3.5 kg
[11] = stage 2 before initiation of administration
[12] = stage 3 and body weight of less than 4.2 kg
[13] = first study, 26 cats (BPS group 11)
[14] = later study, 29 cats (BPS group 15)

CC#CCC(C)[C@H](O)/C=C/[C@@H]1[C@H]2c3cccc(CCCC(=O)[O-])c3O[C@H]2C[C@H]1O.[Na+] (stereo partly shown) [BPS, Beraprost sodium]
adverse side effects [1, 9]: without adverse side effects | kidney function marker values [1, 9]: inhibit elevation in kidney function marker values such as serum creatinine and BUN | tolerability and safety ([1]; 55 μg twice daily for 6 months): well-tolerated and safe | serum creatinine ([1]; 55 μg twice daily for 6 months, vs placebo): inhibited serum creatinine elevation observed in the placebo group | 3-year overall survival rate of BPS therapy group relative to No BPS therapy group (cats with CKD [2]; [10]): 2.90 times | average survival period of BPS therapy group relative to No BPS therapy group (cats with CKD [2]; [10]): 1.66 times | 3-year overall survival rate (cats with CKD [2]; cats with CKD, serum creatinine 1.6 to 2.8 mg/dL (stage 2)): 52.2% | 3-year overall survival rate (cats with CKD [2]; cats with CKD, serum creatinine 2.9 to 5.0 mg/dL (stage 3)): 33.5% | 2-year overall survival rate (cats with CKD [2]; cats with CKD, serum creatinine higher than 5.0 mg/dL (stage 4), BPS 20.0 to 49.1 μg/kg body weight/day, twice daily): 25.9% | 3-year overall survival rate of BPS therapy group relative to No BPS therapy group (cats with CKD [2]; stage 2): 0.72 times | average survival period of BPS therapy group relative to No BPS therapy group (cats with CKD [2]; stage 2): 0.90 times | average survival period (cats with CKD [2]; stage 2): 31.5 months | effect on overall survival rate or observed survival rate (cats with CKD [2]; [11]): no effects of BPS administration to improve the overall survival rate or the observed survival rate were observed | average survival period of BPS therapy group relative to No BPS therapy group (cats with CKD [2]; stage 3): 1.54 times | 3-year overall survival rate of BPS therapy group relative to No BPS therapy group (cats with CKD [2]; stage 3 (Example 4)): 1.85 times | 3-year overall survival rate (cats with CKD [2]; stage 3 (serum creatinine 2.9 to 5.0 mg/dL) and body weight of less than 4.2 kg): 28.0% | average survival period (cats with CKD [2]; stage 3): 25.3 months | median survival period (cats with CKD [2]; stage 3): 23.4 months | average survival period of BPS therapy group relative to No BPS therapy group (cats with CKD [2]; [12]): 1.54 times | 3-year overall survival rate of BPS therapy group relative to No BPS therapy group (cats with CKD [2]; stage 3 and body weight of less than 4.2 kg (Example 6)): 2.77 times | effect on overall survival rate or observed survival rate (cats with CKD [2]; stage 3 and body weight of less than 4.2 kg before initiation of administration): effects of BPS administration to improve the overall survival rate or the observed survival rate were observed | average survival period (cats with CKD [2]; [12]): 22.4 months | median survival period (cats with CKD [2]; [12]): 19.8 months | effect on overall survival rate or observed survival rate (cats with CKD [2]; stage 3 before initiation of administration): effects of BPS administration to improve the overall survival rate or the observed survival rate were observed | 2-year overall survival rate of BPS therapy group relative to No BPS therapy group (cats with CKD [2]; stage 4): 4.80 times | average survival period of BPS therapy group relative to No BPS therapy group (cats with CKD [2]; stage 4): 2.43 times | average survival period (cats with CKD [2]; stage 4): 14.1 months | median survival period (cats with CKD [2]; stage 4): 10.2 months | effect on overall survival rate or observed survival rate (cats with CKD [2]; stage 4 before initiation of administration): effects of BPS administration to improve the overall survival rate or the observed survival rate were observed | 3-year kidney survival rate (cats with CKD [3]; serum creatinine 1.6 to 2.8 mg/dL (stage 2)): 90.0% | 3-year kidney survival rate (cats with CKD [3]; serum creatinine 2.9 to 5.0 mg/dL (stage 3) or higher than 5.0 mg/dL (stage 4), 10.0 mg/dL or lower): 77.1% | 3-year kidney survival rate of BPS therapy group relative to No BPS therapy group (cats with CKD [3]; stage 2): 0.95 times | average kidney survival period of BPS therapy group relative to No BPS therapy group (cats with CKD [3]; stage 2): 0.97 times | average period before kidney death (cats with CKD [3]; stage 2): 40.8 months | effect on kidney death (cats with CKD [3]; [11]): no effects of BPS administration to inhibit kidney death were observed | 3-year kidney survival rate of BPS therapy group relative to No BPS therapy group (cats with CKD [3]; stage 3 or 4): 1.20 times | average kidney survival period of BPS therapy group relative to No BPS therapy group (cats with CKD [3]; stage 3 or 4): 1.48 times | average period before kidney death (cats with CKD [3]; stage 3 or 4): 39.2 months | effect on kidney death (cats with CKD [3]; stage 3 or 4 before initiation of administration): effects of BPS administration to inhibit kidney death were observed | clinical symptoms and kidney function (cats with CKD [4]): stabilized clinical symptoms and maintained kidney function | kidney function (serum creatinine, BUN, other indicators) and clinical symptoms ([5]; 150 μg twice daily for 6 months): an improvement in kidney function | kidney function ([5]; serum creatinine 1.6 to 2.4 mg/dL (mild), 150 μg twice daily for 6 months): improved kidney function was observed in all of the 4 subject cats | kidney function ([5]; serum creatinine 2.4 to 4.0 mg/dL (moderate), 150 μg twice daily for 6 months): improved kidney function was observed in the 2 subject cats, and retained kidney function was observed in other 2 cats | kidney function ([5]; serum creatinine higher than 4.0 mg/dL (severe), 150 μg twice daily for 6 months): improved kidney function was observed in a cat, and temporary improvement, followed by impairment, was observed in other 3 cats | uremia ([5]; cat with uremia caused by chronic renal failure (WO '668)): improved uremia | recovery from chronic renal failure ([5]; mild chronic renal failure, serum creatinine 1.4 to 2.0 mg/dL, 150 μg twice daily for 6 months): recovery from chronic renal failure was observed in 2 cats | pharmacological activity on renal microvascular network [6]: improving microvascular network failure of kidney tissue | effects of BPS in chronic renal failure [7]: effects of BPS are not observed | effect of improving the survival rate vs renin-angiotensin system inhibitor group (cats with CKD [8]; [13]): higher than those in the renin-angiotensin system inhibitor group | effect of lowering the risk of 10% body weight loss vs renin-angiotensin system inhibitor group (cats with CKD [8]; [13]): higher than those in the renin-angiotensin system inhibitor group | effect of improving the survival rate vs renin-angiotensin system inhibitor group (cats with CKD [8]; [14]): no effects of improving the survival rate were observed | effect of lowering the risk of 10% body weight loss vs renin-angiotensin system inhibitor group (cats with CKD [8]; [14]): effects of lowering the risk of 10% body weight loss were observed
